{"source": "patent US9453242B2", "about": "“Method and culture medium for preparing mammalian ovum or embryo in which zona pellucida has been thinned or eliminated, and method for fertilization using mammalian ovum prepared by same method” (NATIONAL UNIVERISTY CORPORATION KUMAMOTO UNIVERSITY, priority 2010, dated 2016)", "key": {"[1]": {"test_system": "zona pellucida of a mouse unfertilized ovum", "assay": "Swelling of zona pellucida (area in zona pellucida) of unfertilized ovum", "assay_type": "cell-based", "details": "reducing agents other than glutathione; FIG. 10, FIG. 11 (DTT 0.5, ascorbic acid 5, epicatechin 1 mM)", "procedure": "Further, the influence of glutathione on swelling of zona pellucida was confirmed. […] Preparation of ovum” were treated with HTF culture media containing glutathione at various concentration at 37° C. for 6 hours, then, the area in zona pellucida was photographed under a microscope and measured by an image analysis software. The conditions of zona pellucida at glutathione concentrations of 0 mM, 1 mM, 2 mM and 10 mM were observed by an invert microscope.\nThe influence of other reducing agents (DTT, ascorbic acid (VC) and epicatechin (EC)) exerted on thinning and swelling of zona pellucida was confirmed in the same manner as in Example 2. The extent of swelling of the zona pellucida of an unfertilized ovum by the concentration of each reducing agent was photographed under a microscope, and determined according to the following formula. % Relative area in ZP=(area of zona pellucida in each experiment/area of zona pellucida at 0 mM)×100"}, "[2]": {"test_system": "frozen sperms of C57BL/6J mice", "assay": "In vitro fertilization after sperm pre-incubation with MBCD and/or glutathione", "assay_type": "cell-based, mouse", "procedure": "A sperm suspension is pre-incubated in 90 μl of a TYH culture medium at 37° C. for 30 minutes, and under a stereomicroscope, sperms showing motility are collected, avoiding nonmotile sperms, and used for fertilization. The pre-incubated sperm suspension (10 μl) is added to 90 μl of an HTF culture medium (±glutathione) into which cumulus-oocyte complexes (COCs) have been previously introduced (insemination), and these are co-incubated in an incubator for 5 to 6 hours (37° C., 5% CO2), thereby performing fertilization. Thereafter, the ovum is washed with drops of new HTF, and the ovum is observed. Those judged to parthenogenetic (only one pronucleus is recognized in ooplasm) are excluded, and on the following day (24 hours after insemination), only 2-cell stage embryos are selected, and fertilization rate is determined according to the following formula. In vitro fertilization rate (%)=(number of 2-cell stage embryo)/(number of 2-cell stage embryo+number of unfertilized ovum)×100\nThe TYH culture medium used for pre-incubation of sperms was prepared according to the above-described composition excepting that polyvinyl alcohol (1.0 mg/ml, available from SIGMA) was used instead of bovine serum albumin, and methyl-β-cyclodextrin (0.75 mM, available from SIGMA) was added. Further, the concentration of glutathione in the TYH culture medium was 1 mM, preparation was carried out in the same manner as in Example 1, and glutathione was added to the TYH culture medium directly before use. The influence on fertilization rate was compared among those containing methyl-β-cyclodextrin, those containing glutathione and those containing both compounds.\nFertilization was conducted with 90 μl of an HTF culture medium (in the case of addition of glutathione, the concentration was 1 mM) containing cumulus-oocyte complexes (COCs), in the same manner as in Example 1 (IVF/glutathione in table). As the sperm, frozen sperms of C57BL/6J mice were used, and processed according to FIG. 1. Thawed sperms were pre-incubated in a TYH culture medium (±glutathione, ±methyl-β-cyclodextrin) at 37° C. for 30 minutes, and sperms showing motility were collected and used for fertilization. The experiment was conducted five times."}}, "data": [{"molecule": "O[C@@H](CS)[C@@H](O)CS", "note": "[DTT]", "values": [{"measurement": "thinning and swelling of zona pellucida", "setting": "[1]", "result": "thinning and swelling of zona pellucida by treatment with DTT were confirmed"}]}, {"molecule": "O=C1O[C@H]([C@@H](O)CO)C(O)=C1O", "note": "[ascorbic acid]", "values": [{"measurement": "thinning and swelling of zona pellucida", "setting": "[1]", "result": "thinning or swelling of zona pellucida did not occur"}]}, {"molecule": "methyl-β-cyclodextrin [MBCD]", "values": [{"measurement": "number of 2-cell stage embryo(%)", "setting": "[2]; sperm pre-incubation MBCD + (0.75 mM), glutathione −, IVF glutathione −", "result": 65, "unit": "%"}, {"measurement": "number of 2-cell stage embryo", "setting": "[2]; sperm pre-incubation MBCD + (0.75 mM), glutathione −, IVF glutathione −, 323 oocytes", "result": 210}, {"measurement": "effect of sperm pre-incubation on fertilization rate", "setting": "[2]; sperms pre-incubated with 1 mM glutathione or 0.75 mM MBCD, 37° C., 30 minutes", "result": "fertilization rate was improved"}]}]}
